Activity calls are given as the source filed them. The calls are words filed in the database; no cut-off is given here.

Assay [1] deals with T1, Class 1 histone deacetylase (Homo sapiens, UniProt Q13547+O15379+Q92769+Q9BY41). The assay can be described thus: Inhibition of class 1 HDAC in human CAL27 cells assessed as potentiation of cisplatin-induced cytotoxicity by measuring fold reduction in cisplatin IC50 at […] preincubated for 48 hrs followed by cisplatin addition and measured after 72 hrs by MTT assay relative to cisplatin IC50. It is filed as cell-based. The settings on record: CAL-27. In general terms: Tetrazolium dyes change colour on reduction, which living cells bring about.
T1 sequence (O15379 whole entry, looked up): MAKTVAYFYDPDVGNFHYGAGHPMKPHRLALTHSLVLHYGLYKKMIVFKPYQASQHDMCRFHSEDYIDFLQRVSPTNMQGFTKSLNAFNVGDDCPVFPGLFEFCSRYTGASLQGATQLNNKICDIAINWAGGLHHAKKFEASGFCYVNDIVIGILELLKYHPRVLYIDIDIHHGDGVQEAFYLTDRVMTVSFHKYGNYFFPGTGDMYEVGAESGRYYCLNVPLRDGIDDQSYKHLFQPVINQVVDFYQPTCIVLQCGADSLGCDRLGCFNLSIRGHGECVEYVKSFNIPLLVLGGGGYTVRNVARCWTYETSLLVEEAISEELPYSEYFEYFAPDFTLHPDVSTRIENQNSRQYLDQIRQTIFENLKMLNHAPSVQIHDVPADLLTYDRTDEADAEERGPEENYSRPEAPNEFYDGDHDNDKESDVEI
T1 sequence (Q13547 whole entry, looked up): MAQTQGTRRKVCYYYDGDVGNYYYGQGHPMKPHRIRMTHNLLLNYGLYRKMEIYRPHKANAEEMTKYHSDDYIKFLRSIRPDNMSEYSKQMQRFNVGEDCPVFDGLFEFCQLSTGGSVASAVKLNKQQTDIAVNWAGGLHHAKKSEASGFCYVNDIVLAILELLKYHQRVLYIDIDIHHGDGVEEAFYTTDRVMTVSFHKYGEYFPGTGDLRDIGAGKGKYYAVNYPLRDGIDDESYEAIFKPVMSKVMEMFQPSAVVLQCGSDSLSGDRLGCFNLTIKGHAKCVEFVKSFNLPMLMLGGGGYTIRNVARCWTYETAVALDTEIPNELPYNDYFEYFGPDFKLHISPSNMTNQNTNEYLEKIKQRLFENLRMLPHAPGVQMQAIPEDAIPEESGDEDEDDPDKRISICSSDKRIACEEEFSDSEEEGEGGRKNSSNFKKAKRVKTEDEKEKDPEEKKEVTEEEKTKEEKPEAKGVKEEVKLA
T1 sequence (Q92769 whole entry, looked up): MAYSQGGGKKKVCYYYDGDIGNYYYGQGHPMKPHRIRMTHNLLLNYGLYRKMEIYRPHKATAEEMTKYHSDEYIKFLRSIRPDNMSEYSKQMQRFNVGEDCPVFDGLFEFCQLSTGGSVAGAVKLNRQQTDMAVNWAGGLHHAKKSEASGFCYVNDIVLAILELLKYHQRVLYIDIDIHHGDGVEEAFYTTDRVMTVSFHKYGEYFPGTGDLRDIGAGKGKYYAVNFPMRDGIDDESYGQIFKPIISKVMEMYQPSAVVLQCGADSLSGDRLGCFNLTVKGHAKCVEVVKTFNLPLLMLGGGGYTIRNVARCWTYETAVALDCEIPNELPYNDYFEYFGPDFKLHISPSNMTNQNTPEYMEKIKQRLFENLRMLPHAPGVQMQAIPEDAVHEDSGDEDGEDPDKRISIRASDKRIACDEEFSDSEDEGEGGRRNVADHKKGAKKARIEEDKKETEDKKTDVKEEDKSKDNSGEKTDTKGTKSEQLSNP
T1 sequence (Q9BY41 whole entry, looked up): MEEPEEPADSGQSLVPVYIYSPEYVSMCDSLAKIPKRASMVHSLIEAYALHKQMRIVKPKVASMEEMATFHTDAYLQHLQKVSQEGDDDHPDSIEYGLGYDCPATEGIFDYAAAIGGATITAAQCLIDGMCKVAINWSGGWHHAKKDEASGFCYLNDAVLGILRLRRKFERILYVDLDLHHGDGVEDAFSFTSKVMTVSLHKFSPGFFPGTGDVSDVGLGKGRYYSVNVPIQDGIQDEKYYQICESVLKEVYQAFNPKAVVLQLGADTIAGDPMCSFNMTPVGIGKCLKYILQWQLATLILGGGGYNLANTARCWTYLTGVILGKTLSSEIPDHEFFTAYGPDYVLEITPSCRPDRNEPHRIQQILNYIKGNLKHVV

Assay [2] addresses T1, Class 1 histone deacetylase. Briefly: Inhibition of class 1 HDAC in human CAL27 cells assessed as potentiation of cisplatin-induced cytotoxicity by measuring cisplatin IC50 at […] preincubated for 48 hrs followed by cisplatin addition and measured after 72 hrs by MTT assay (reference value: 9.79 uM). It is filed as cell-based. The settings on record: cal-27.
Assay [3] can be described thus: Induction of apoptosis in human Cal27CisR cells assessed as caspase-3/7 activation at […] measured after 48 hrs by CellEvent caspase 3/7 green detection reagent/Hoechst 33342 staining based imaging analysis relative to control. It is filed as functional.
Another assay addresses Histone deacetylase 2 (Homo sapiens, UniProt Q92769). The assay can be described thus: Inhibition of recombinant human full length C-terminal FLAG-tagged HDAC2 expressed in baculovirus infected Sf9 insect cells at 3.33 uM using Boc-Lys(epsilon-acetyl)-AMC as substrate incubated for 90 mins by fluorescence assay relative to control.
Assay [4] concerns the target T1, Class 1 histone deacetylase. The following applies: CAL-27.
Description: Inhibition of class 1 HDAC in human CAL27 cells assessed as potentiation of cisplatin-induced cytotoxicity by measuring combination index at 0.25 uM in presence of 0.1 uM cisplatin by MTT assay based Chou-Talalay analysis
Assay [5] shares this target.
Description: Inhibition of class 1 HDAC in human Cal27CisR cells assessed as potentiation of cisplatin-induced cytotoxicity by measuring combination index at 0.25 uM in presence of 1 uM cisplatin by MTT assay based Chou-Talalay analysis
For assay [6] the target is unchanged. The following applies: CAL-27. The source holds these as a separate data set.
Description: Inhibition of class 1 HDAC in human CAL27 cells assessed as potentiation of cisplatin-induced cytotoxicity by measuring combination index at 0.1 uM in presence of 1 uM cisplatin by MTT assay based Chou-Talalay analysis
Assay [7] is described as follows: Induction of apoptosis in human Cal27CisR cells assessed as accumulation at sub-G1 phase at 0.5 uM after 48 hrs by propidium iodide staining based flow cytometry relative to control. It is filed as functional.
Assay [8] deals with T1, Class 1 histone deacetylase. The source holds these as a separate data set.
Description: Inhibition of class 1 HDAC in human Cal27CisR cells assessed as potentiation of cisplatin-induced cytotoxicity by measuring combination index at 0.25 uM in presence of 100 uM cisplatin by MTT assay based Chou-Talalay analysis
Assay [9] has the same target. This is another data set of the same source.
Description: Inhibition of class 1 HDAC in human Cal27CisR cells assessed as potentiation of cisplatin-induced cytotoxicity by measuring combination index at 0.10 uM in presence of 10 uM cisplatin by MTT assay based Chou-Talalay analysis
The species entered for a further assay is Homo sapiens. Briefly: Induction of apoptosis in human Cal27CisR cells assessed as accumulation at sub-G1 phase at 5 uM after 48 hrs by propidium iodide staining based flow cytometry. It is filed as functional, cell-based.
Assay [10] deals with T1, Class 1 histone deacetylase. The assay can be described thus: Inhibition of class 1 HDAC in human CAL27 cells assessed as potentiation of cisplatin-induced cytotoxicity by measuring combination index at 5 uM in presence of […] cisplatin by MTT assay based Chou-Talalay analysis. It is filed as cell-based. The settings on record: CAL-27.
Assay [11] shares this target. Briefly: Inhibition of class 1 HDAC in human CAL27 cells assessed as potentiation of cisplatin-induced apoptosis assessed as increase in caspase-3/7 activation at 5 uM preincubated for 48 hrs followed by cisplatin addition and measured after 24 hrs in presence of pan caspase inhibitor QVD by CellEvent caspase 3/7 green detection reagent/Hoechst 33342 staining based imaging analysis. It is filed as cell-based. The settings on record: CAL-27.

The target is the same in assay [12]. Briefly: Inhibition of class 1 HDAC in human Cal27CisR cells assessed as potentiation of cisplatin-induced cytotoxicity by measuring combination index at 5 uM in presence of 32 uM cisplatin by MTT assay based Chou-Talalay analysis. It is filed as cell-based.
Assay [13] shares this target. Briefly: Inhibition of class 1 HDAC in human CAL27 cells assessed as potentiation of cisplatin-induced apoptosis assessed as increase in caspase-3/7 activation at 5 uM preincubated for 48 hrs followed by cisplatin addition and measured after 24 hrs by CellEvent caspase 3/7 green detection reagent/Hoechst 33342 staining based imaging analysis. It is filed as cell-based. The settings on record: CAL-27.

Assay [14] shares this target. The assay can be described thus: Inhibition of class 1 HDAC in human Cal27CisR cells assessed as increase in histone H3 acetylation at 5 uM measured after 24 hrs by immunoblot analysis. It is filed as cell-based.
Assay [15] has the same target. The assay can be described thus: Inhibition of class 1 HDAC in human Cal27CisR cells assessed as potentiation of cisplatin-induced apoptosis by measuring increase in accumulation at sub-G1 phase at 5 uM preincubated for 48 hrs followed by cisplatin addition and measured after 24 hrs by propidium iodide staining based flow cytometry. It is filed as cell-based. (In general: In flow cytometry, cells or beads pass a laser one at a time.)

Assay [16] has the same target. Briefly: Inhibition of class 1 HDAC in human Cal27CisR cells assessed as potentiation of cisplatin-induced cytotoxicity by measuring combination index at 5 uM in presence of […] cisplatin by MTT assay based Chou-Talalay analysis. It is filed as cell-based.

Sequence of Histone deacetylase 2 (Q92769 whole entry): as the sequence (Q92769 whole entry, looked up) above

`Cc1cc(C)cc(C(=O)N(CC(=O)NCc2ccccc2)Cc2ccc(C(=O)Nc3cc(-c4ccccc4)ccc3N)cc2)c1`: the Ratio IC50 in [1] is 5.26. Further, in assay [2], the IC50 (commonly the concentration that gives 50% inhibition) stood at 1.86 µM. In assay [3], the Activity was found to be 5.96%. In addition, on Histone deacetylase 2, the inhibition (usually the change of the read-out against control, counted positive when it falls) amounted to 34%.
As for `CN(C)c1ccc(C(=O)N(CC(=O)NCc2ccccc2)Cc2ccc(C(=O)Nc3ccccc3N)cc2)cc1`, the CI is 0.56 in [4]; 0.76 in [5]; 0.91 in assay [6]; 0.03 in assay [8]; less than 0.2 in assay [9]. Besides, in assay [7], the Activity is reported as 6.15%.
For `Cc1cc(C)cc(C(=O)N(CCCCCC(=O)Nc2cc(-c3ccccc3)ccc2N)CC(=O)NCc2ccccc2)c1`, the result in the assay listed under Homo sapiens was inactive. The CI is less than 0.2 in assay [10], 0.1 in [12] and less than 0.2 in assay [16]. In assay [11], the inhibition entry was “inactive”. The inhibition result in assay [13], in [14] and in assay [15] was “Active” in each case.
